According to US20120178971A1, “Process for Isolation of a Novel Compound 5,8A-DI-1-Propyl 1-Octahydronapthalen-1-(2H) One,Trachyspermum AMI (Ajowan Caraway) Seeds” (ALIGARH MUSLIM UNIVERSITY, priority 2011, published 2012):
Values after ≈ are worked out from the molar mass of the structure shown.

How the values were obtained:
Streptococcus mutans [1] = experiment: Determination of MIC; format: cell-based; details: against Streptococcus mutans
Streptococcus mutans [2] = experiment: Sucrose dependent cell adherence of Streptococcus mutans; format: cell-based
Source text: FIG. 2: Inhibitory effect of the compound on the extent of sucrose dependent cell adherence of Streptococcus mutans. The % cell adherence is the relative amount (%) of adherent cells at different concentrations of the compound as compared to the cells attached in the absence of any compound. Each value is an average of triplicate assays and each bar indicates ±SD (n=3).

[3] = system: Streptococcus mutans biofilm; experiment: Streptococcus mutans biofilm formation; format: cell-based
Description: FIG. 3: Inhibitory effect of the compound on the biofilm formed by Streptococcus mutans. The % biofilm formed is the relative (%) of biofilm formed at different concentrations of the compound as compared to that in the absence of any compound. Each value is an average of triplicate assays and each bar indicates ±SD (n=3)
The biofilm formation was assessed using increasing concentration of the compound. […] As observed in the adherence, the inhibitory effect was also found to be in a dose dependent manner.

[4] = system: Streptococcus mutans biofilm; experiment: Confocal laser scanning microscopy of Streptococcus mutans biofilm; format: cell-based; details: 78.13 μ/ml, 24 h incubation
Description: FIG. 4: CLSM images of Streptococccus mutans biofilm formed in the presence or absence of the compound after 24 h incubation. The results are expressed as the means ±standard deviations of triplicate assays.
The biofilm of Streptococcus mutans was analyzed under the confocal laser scanning microscope to observe the changes in its morphology as shown in FIG. 4. […] The cells in the treated sample were more spread out and dispersed. Each panel of the image is a representative view of 141.145 μm by 141.145 μm along the xy axis. The xy analysis provides the biofilm surface coverage, while the z-section analyses establish the thickness of the biofilm. The control cells have biofilms that are clumped and less spread along the xy lane, show a thickness of 19.74±0.5 μm. […] The cells wee individually scattered over the surface rather than in any arrangement.

Streptococcus mutans [5] = experiment: Inhibition of acid production (pH of culture medium); format: cell-based
Description: […] At a concentration of 78.13 μg/ml, there is maximum reduction in acid production as is evident by an increase in pH from 4.7 (control) to 7.5.

Streptococcus mutans [6] = experiment: Cell surface hydrophobicity of Streptococcus mutans; format: cell-based; details: 9.76 μg/ml, compared to untreated condition
Source text: FIG. 5: Inhibitory effect of compound on the hyrdophobicity of Streptococcus mutans where all the concentrations were taken in triplicates.
It was shown that the cell surface hydrophobocity of S. mutans is affected following treatment with the compound obtained from Trachyspermum ammi as shown in figure.

[7] = system: crude GTF of Streptococcus mutans; experiment: Inhibition of water insoluble glucan synthesis; format: biochemical; details: 4.88 μl/ml
Description: FIG. 6: Inhibitory effects of the compound on insoluble glucan synthesis by crude GTF of Streptococcus mutans. The % insoluble glucan synthesis is the relative amount (%) ±SD (n=3)
The influence of different concentrations was assessed for the synthesis of insoluble glucan.

Streptococcus mutans [8] = experiment: Inhibition of acid production (pH of culture medium); format: cell-based; remark: listed apart in the source

With `CCCC1CCCC2(CCC)C(=O)CCCC12` (centres unmarked) [the compound, 5,8a-di-1 propyl-octahydronapthalen-1-(2H)-one] the MIC (Streptococcus mutans [1]) was 156 µg/mL (≈ 661 µM), the reduction in adherence (Streptococcus mutans [2]; 9.77 μg/ml) was 30% and the “least concentration to give at least 50% inhibition of adherence” value (Streptococcus mutans [2]; sucrose dependent adherence) was 39.06 µg/mL. For the same compound, the biofilm formation ([3]; 78.13 μg/ml) was “inhibited the biofilm formation”, the biofilm formation ([3]; 156.25 μg/ml (MIC)) was “completely inhibited the biofilm formation” and the biofilm morphology ([4]; CLSM) was “complete absence of clumped cells”. For the same compound, the “thickness of the biofilm” value ([4]; CLSM z-section) was 12.8±0.7 µm, the “pH ± SD (after 24 h)” value (Streptococcus mutans [5]; 2.44 μg/ml) was 4.77 ± 1.69 and the “pH ± SD (after 24 h)” value (Streptococcus mutans [5]; 4.88 μg/ml) was 4.84 ± 1.20. The “pH ± SD (after 24 h)” value (Streptococcus mutans [5]; 9.76 μg/ml) was 5.49 ± 1.05, the “pH ± SD (after 24 h)” value (Streptococcus mutans [5]; 19.53 μg/ml) was 5.62 ± 1.96 and the “pH ± SD (after 24 h)” value (Streptococcus mutans [5]; 39.01 μg/ml) was 5.68 ± 6.78. The “pH ± SD (after 24 h)” value (Streptococcus mutans [5]; 78.13 μg/ml) was 6.48 ± 5.97, the “pH ± SD (after 24 h)” value (Streptococcus mutans [5]; 156.25 μg/ml) was 7.55 ± 2.65 and the cell surface hydrophobicity (Streptococcus mutans [6]) was “drastically reduced the cell surface hydrophobicity to more than half”. The “reduction in the synthesis of insoluble glucan” value [7] was 25%, the “pH ± SD (onset)” value (Streptococcus mutans [8]; 2.44 μg/ml) was 7.28 ± 0.09 and the “pH ± SD (onset)” value (Streptococcus mutans [8]; 4.88 μg/ml) was 7.24 ± 1.33. For the same compound, the “pH ± SD (onset)” value (Streptococcus mutans [8]; 9.76 μg/ml) was 7.33 ± 1.11, the “pH ± SD (onset)” value (Streptococcus mutans [8]; 19.53 μg/ml) was 7.38 ± 1.91 and the “pH ± SD (onset)” value (Streptococcus mutans [8]; 39.01 μg/ml) was 7.43 ± 1.13. For the same compound, the “pH ± SD (onset)” value (Streptococcus mutans [8]; 78.13 μg/ml) was 7.43 ± 0.15 and the “pH ± SD (onset)” value (Streptococcus mutans [8]; 156.25 μg/ml) was 7.38 ± 1.29.
